Results published in US20260356860A1, “2-SUBSTITUTED 3,4A,5,7,8,8A-HEXAHYDRO-4H-THIOPYRANO[4,3-DJPYRIMIDIN-4-ONES FOR WOUND TREATMENT” (priority 2022, published 2026).

Legend:
closed excisional wounds = experiment: Closed excisional wound healing study (cosmesis); assay type: in vivo, Yucatan Miniature Swine; details: of 8 wounds
Procedure: The test composition in the closed excisional wound and burn studies for compounds without GO-HA (no GO-HA added) was a mixture with an overall concentration of 0.20 to 0.25 mg/mL of the respective compound in serum formulation as follows: compound (4 mg), butylene glycol (0.80 mL), polysorbate 20 (0.40 mL), ultra pure water (18 mL), and hydroxypropyl cellulose (0.12 g).
The test composition in the closed excisional wound and burn studies for compounds with GO-HA (Compound+GO-HA) was a mixture with an overall concentration of 1.0 mg/mL of the respective compound and 0.5 mg/mL of GO-HA in serum formulation as follows: compound (18 mg), PEG 400 (0.8 mL), GO-HA (9 mg), ultra pure water (18 mL), and hydroxypropyl cellulose (0.12 g).
The frequency of wound creation was once on dosing phase day 1. The frequency of dose administration was once on dosing phase days 1, 3, 5, 7, 9, 11, 13, 15, 17, 19, and 21. Each animal had twelve 5 cm×0.5 cm full thickness fusiform(spindle shaped) wound sites, spaced at least 3 cm apart to the appropriate depth and in a staggered pattern to reduce central cross-sectional wound tension.
Once […] was obtained, each wound was sutured closed using non-absorbable suture, the simple interrupted closure technique is shown in FIG. 13. Each wound had 5 simple interrupted sutures with a 0.5 to 1 cm interval between sutures.
Compounds of Formula (I) and controls were applied directly to the wound site in a generous layer evenly over the sutured wound using a sterile applicator as needed. After application, each wound site was covered with suitable sterile dressing materials.
Dressings were changed every dosing phase day at day 3, 5, 7, 9, 11, 13, 15, 17, 19, and 21, and sutures were removed on dosing phase day 15. After dose administration on each dosing day, the wounds were covered with dressings as described above.
All animals were scheduled to be terminated on dosing phase day 22. At termination, the entire wound site (dose site) was collected separately for each site and included at least 0.5 cm margin skin and a depth below the wound bed. […]

[1] = tested on: HEK293 SuperTOPFlash reporter cells, Wnt promoter; experiment: Wnt inhibition in HEK293 SuperTOPFlash reporter cells, DMSO vs aqueous GO-HA (FIGS. 1-3); assay type: cell-based
Procedure: In order to determine the effect of the compounds of Formula (I) on Wnt inhibition, an invitro assay using HEK293 SuperTOPFlash reporter cells, with the Wnt promoter driving a luciferase reporter gene, were utilized. 40,000 HEK293 SuperTOPFlash reporter cells were seeded, per well, in a 48 well plate for 24 hours, prior to administration of serial dilutions of the compounds of Formula (I) to individual wells. Serial dilutions ranging from […] to 1 nM of compounds of Formula (I) were added with or without 50 ng/mL Wnt3α (Time Biosciences) and allowed to incubate with the reporter cells for 18 hours. Reporter cells with no treatment were used as negative control.

new porcine skin = experiment: Strain (tensile strength) of healed wound; assay type: in vivo; details: day 21; for Strain (tensile strength) / Strain (tensile strength), Mean: topical
Procedure: Additional tests were performed including elasticity (Table 12); max force (Table 13); tensile strength (strain) (Table 14); energy peak (Table 15); rete-ridge formation; and collagen organization (plane polarized light) (FIG. 24) of the healed wound sites, described as follows.
A is saline (control), B is serum formulation (vehicle), C is GO-HA (vehicle), D is Compound 1; E is Compound 1+GO-HA; F is Compound 8; G is Compound 8+GO-HA; H is Compound 10; and J is Compound 10+GO-HA.
Strain (tensile strength) (N/mm^2) is the force required to pull/stretch a material to a breaking point. A 20% improvement over saline considered good. All compounds of Formula (I) tested with or without GO-HA ranged from 36% to 142% improvement in tensile strength compared to the saline control.

[2] = tested on: HEK293 SuperTOPFlash reporter cells, Wnt promoter; experiment: HEK CELL Wnt Assay (luciferase reporter); assay type: cell-based; details: serial dilutions, with or without 50 ng/mL Wnt3a; 18 h
Summary of the method: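 Reporter cells were seeded 24 h before dosing with serial dilutions ([…] to 1 nM), with or without 50 ng/mL Wnt3a, and incubated 18 h. Untreated cells served as negative control, with luciferase as read-out.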

bacteria = experiment: Bacteriostasis: growth inhibition over the panel of bacteria; assay type: cell-based; details: 72 h
Procedure: In order to assess the log reduction capabilities of compounds of Formula (1), testing was performed on organisms that are found in acute and chronic wounds. Triplicate tubes were prepared for each bacteria using 50 μL of inoculum (about 1×10^6 CFU/mL) which was added to 450 μL of compound solution (compound of Formula (I)) (or 100 μL of inoculum in 900 μL of compound solution), resulting in a final inoculum of about 1×10^5 CFU/mL, as shown in Table 4.
Tubes were mixed with a vortex and then incubated in a shaking incubator at 175 RPM and 35° C. to 37° C.
For Compounds 1, 7, 8, 10, and 18 in Tables 6, 7-A, 7-B, 8, 9, 10-A, 10-B, and 11: The compound solutions were prepared with compound (30 mg), polysorbate 20 (1.6 mL), butylene glycol (1.6 mL), phosphatidyl choline (0.66 g), ethanol (1.6 mL), hydroxypropyl cellulose (0.26 g), and ultra pure water (24.9 mL).
Testing was performed at two time points: 18 to 24 hours, and […].

O=c1[nH]c(-c2ccc(B(O)O)cc2)nc2c1CSCC2 [Compound 1, (4-(4-oxo-3,5,7,8-tetrahydro-4H-thiopyrano[4,3-d]pyrimidin-2-yl)phenyl)boronic acid]
wounds with improved cosmesis / visible appearance than the control (closed excisional wounds): 7 of 8
IC50 [1]: 2000 nM
Strain (tensile strength) (new porcine skin; individual value 1): 2.568 N/mm^2
Strain (tensile strength) (new porcine skin; individual value 2): 3.906 N/mm^2
Strain (tensile strength) (new porcine skin; individual value 3): 10.226 N/mm^2
Strain (tensile strength) (new porcine skin; individual value 4): 5.738 N/mm^2
Strain (tensile strength), Mean (new porcine skin): 5.609 N/mm^2
IC50 [2]: 2000 nM
number of bacteria with inhibited growth (bacteria; test 1): 6 of 7
number of bacteria with inhibited growth (bacteria; test 2): 7 of 7

O=c1[nH]c(-c2ccc(-c3ccc(Br)nc3)cc2)nc2c1CSCC2 [Compound 7, 2-(4-(6-bromopyridin-3-yl)phenyl)-3,5,7,8-tetrahydro-4H-thiopyrano [4,3-d]pyrimidin-4-one]
IC50 [1]: 5 to 10 nM
IC50 [2]: 17 nM
number of bacteria with inhibited growth (bacteria): 4 of 7

CC(C)(OCCO)c1ccc(-c2nc3c(c(=O)[nH]2)CSCC3)cc1 [Compound 8, 2-(4-(2-(2-hydroxyethoxy)propan-2-yl)phenyl)-3,5,7,8-tetrahydro-4H-thiopyrano[4,3-d]pyrimidin-4-one]
wounds with improved cosmesis / visible appearance than the control (closed excisional wounds): 2 of 8
IC50 [1]: 5 to 10 nM
Strain (tensile strength) (new porcine skin; individual value 1): 7.640 N/mm^2
Strain (tensile strength) (new porcine skin; individual value 2): 4.427 N/mm^2
Strain (tensile strength) (new porcine skin; individual value 3): 2.939 N/mm^2
Strain (tensile strength) (new porcine skin; individual value 4): 6.900 N/mm^2
Strain (tensile strength) (new porcine skin; individual value 5): 2.913 N/mm^2
Strain (tensile strength), Mean (new porcine skin): 4.964 N/mm^2
IC50 [2]: 4.4 nM
number of bacteria with inhibited growth (bacteria): 5 of 7

O=c1[nH]c(-c2ccc(-c3ccc(B(O)O)cc3)cc2)nc2c1CSCC2 [Compound 10, (4′-(4-oxo-3,5,7,8-tetrahydro-4H-thiopyrano[4,3-d]pyrimidin-2-yl)-[1,1′-biphenyl]-4-yl)boronic acid]
wounds with improved cosmesis / visible appearance than the control (closed excisional wounds): 3 of 8
improvement in tensile strength (strain) compared to the saline control (new porcine skin): 105%
Strain (tensile strength) (new porcine skin; individual value 1): 6.792 N/mm^2
Strain (tensile strength) (new porcine skin; individual value 2): 11.592 N/mm^2
Strain (tensile strength) (new porcine skin; individual value 3): 5.862 N/mm^2
Strain (tensile strength) (new porcine skin; individual value 4): 5.506 N/mm^2
Strain (tensile strength), Mean (new porcine skin): 7.438 N/mm^2
IC50 [2]: 5 nM
number of bacteria with inhibited growth (bacteria; test 1): 7 of 7
number of bacteria with inhibited growth (bacteria; test 2): 7 of 7

COC(=O)NCCOC(C)(C)c1ccc(-c2nc3c(c(=O)[nH]2)CSCC3)cc1 [Compound 18, methyl (2-((2-(4-(4-oxo-3,5,7,8-tetrahydro-4H-thiopyrano[4,3-d]pyrimidin-2-yl)phenyl)propan-2-yl)oxy)ethyl)carbamate]
IC50 [2]: 6 nM
number of bacteria with inhibited growth (bacteria; test 1): 14 of 15
